Source: ChEMBL document CHEMBL2010642, “Trichostatin analogues JBIR-109, JBIR-110, and JBIR-111 from the marine sponge-derived Streptomyces sp. RM72” (J Nat Prod, 2012)

What follows are compounds tested against Histone deacetylase 1 (Homo sapiens, UniProt Q13547) (assay: Inhibition of human HDAC1 after 30 mins by fluorescence assay).
Histone deacetylase 1, sequence (Q13547 whole entry): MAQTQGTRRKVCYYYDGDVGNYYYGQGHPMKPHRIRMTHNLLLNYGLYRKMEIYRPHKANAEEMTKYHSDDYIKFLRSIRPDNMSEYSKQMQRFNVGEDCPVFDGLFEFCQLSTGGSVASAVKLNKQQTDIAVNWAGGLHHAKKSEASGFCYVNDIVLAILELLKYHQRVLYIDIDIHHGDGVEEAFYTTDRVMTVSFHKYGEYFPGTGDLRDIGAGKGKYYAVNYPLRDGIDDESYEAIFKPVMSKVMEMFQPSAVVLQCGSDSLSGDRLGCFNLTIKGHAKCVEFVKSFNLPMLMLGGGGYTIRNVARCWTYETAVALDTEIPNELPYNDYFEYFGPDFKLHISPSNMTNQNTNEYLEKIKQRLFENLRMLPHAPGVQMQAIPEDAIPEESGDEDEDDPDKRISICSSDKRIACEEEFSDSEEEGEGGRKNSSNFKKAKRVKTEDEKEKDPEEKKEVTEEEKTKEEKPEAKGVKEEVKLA
For `CC(/C=C/C(=O)N[C@@H](CCC(=O)O)C(=O)O)=C\[C@@H](C)C(=O)c1ccc(N(C)C)cc1`, the IC50 was 48 µM.
`CC(/C=C/C(=O)NCCS(=O)(=O)O)=C\[C@@H](C)C(=O)c1ccc(N(C)C)cc1` showed an IC50 of 74 µM.
Work on `CC(/C=C/C(=O)N[C@](C)(CO)C(=O)O)=C\[C@@H](C)C(=O)c1ccc(N(C)C)cc1` yielded an IC50 of 57 µM.
`CC(/C=C/C(=O)O)=C\[C@@H](C)C(=O)c1ccc(N(C)C)cc1` [TRICHOSTATIC ACID] gave an IC50 of 73 µM.
